The values that follow come from US20200253870A1, “A LDV LIPOSOMAL FORMULATION OF PHOTO SYSTEM-I FOR TREATMENT OF CANCER” (priority 2016, published 2020).

In data set [1] the test system is A375 cells. In words: FACS analysis for apoptosis (annexin V/PI) in A375 cells. The class given is cell-based, human. As to conditions: A375, 15.62 μg/mL. The method, then:
Furthermore FACS analysis using apoptosis detection kit has been performed. FACS analysis, have ascertained that the LDV liposomal formulation of PSI caused apoptotic death of B16F10 and A375 cells (FIGS. 4 and 5). Inventors have performed apoptosis assay using annexin V/PI in B16F10 and A375 cell to compare the amount of apoptotic death of cancer cell due to application of 15.62 μg/mL concentration of LDV liposomal PSI and doxorubicin. Inventors have found large amount of apoptotic death of both the cancer cells (A375 and B16F10) due to LDV liposomal PSI.
Fluorescence activated cell sorting (FACS) experiment was performed for studying the type of cell death. The cell death pathway of B16F10 cells in FACS using apoptosis detection kit was studied. Cells were seeded at a density of ˜5×10^5 cells per well in a 6-well plate before 24 hours of treatment. The cells were treated with solutions of LDV liposomal formulation of PSI. After that cells were incubated for 48 hours. Cells were trypsinized and washed with PBS by help of centrifugation. […] After this another 400 μL of assay buffer was added to the cells and these total 500 μL of cell solution was analyzed by FACS. The emission of Annexin V and PI was detected in the FITC and PI channels of BD LSRFORTESA flow cytometer using emission filters at 530 and 610 nm respectively. […] Data was analyzed using FACS DIVA software. […]
(In general: A flow cytometer gives signals particle by particle.)

Data set [2] is described as follows: MTT cell viability assay in WI38 normal cells. The data set is classed as cell-based. The note with it: human, WI38, 15.62 μg/mL, Table 5 comparison. The method, then: B16F10 and WI38 cells were seeded in a 96-well plate at density of 10000 cells per well before 24 h of treatment. Cells were treated with LDV liposomal PSI and normal liposomal PSI separately in complete media for 24 h. After 24 h, MTT assay was performed. […] In case of normal liposomal PSI, inventors have found similar amount of cell viability for both B16F10 and WI38 cells.
B16F10 and A375 cells were treated with the LDV liposomal formulation of PSI and cellular viability was checked using MTT assay. It is a colorimetric assay where MTT (Methyl thiazolyl diphenyl-tetrazolium bromide), a yellow tetrazole compound, is reduced to purple formazan by cellular reductase enzymes of live cells. Dead cells cannot do this type of reduction and are not able to develop the purple colour. Therefore an idea about the amount of cells lived after the treatment of LDV liposomal formulation of PSI with respect to those cells (control) which are not treated with the peptide. The live cells are called as viable cells and it is denoted as % viability in the Y-axis. On the X-axis four different concentrations of the said formulation was plotted. The absorbance at 550 nm was measured and the % viability was calculated.
% Viability=[(A550Treated Cells−A550 Backgrounds)/(A550Untreated Cells−A550 Backgrounds)]*100.
For orientation: Tetrazolium assays rely on reduction of a dye to a coloured formazan, in cell work by metabolically active cells.

Data set [3] concerns A375 cells. Briefly: cells. The note with it: A-375, MTT. The class given is cell-based, human.
Procedure: B16F10 and A375 cells were treated with the LDV liposomal formulation of PSI and cellular viability was checked using MTT assay. […] Therefore an idea about the amount of cells lived after the treatment of LDV liposomal formulation of PSI with respect to those cells (control) which are not treated with the peptide. […] The absorbance at 550 nm was measured and the % viability was calculated.
(§1) Cells were seeded at a density of 10000 cells per well in 96-well plate before 24 hours of treatment. Cells were treated with different concentrations of LDV liposomal formulation of PSI. After that cells were incubated for 48 hours in complete media. MTT solution (5 mg/mL) was prepared in PBS. 50 μL of MTT solution was added into each well and incubated at 37° C. for 4 hours. Purple colored formazan was dissolved in 1:1 (v/v) DMSO/MeOH and absorbances of the wells were measured at 550 nm by micro-plate ELISA reader. The % viability from this absorbance values was calculated.
A375 cells were seeded at a density of 10000 cells per well in 96-well plate before 24 hours of treatment. Cells were treated with LDV-liposome-PSI and doxorubicin for 24 hours. MTT assay as described was performed and IC50 value was calculated using CompuSyn software.
The subject of data set [4] is B16F10 cells. Briefly: FACS analysis for apoptosis (annexin V/PI) in B16F10 cells. The data set is classed as cell-based, mouse. As to conditions: B16F10, 15.62 μg/mL, 48 hours. The method, then:
Fluorescence activated cell sorting (FACS) experiment was performed for studying the type of cell death. The cell death pathway of B16F10 cells in FACS using apoptosis detection kit was studied. Cells were seeded at a density of ˜5×10^5 cells per well in a 6-well plate before 24 hours of treatment. The cells were treated with solutions of LDV liposomal formulation of PSI. After that cells were incubated for 48 hours. Cells were trypsinized and washed with PBS by help of centrifugation. Cells were incubated in dark at 37° C. for 30 minutes with a 100 μL solution of assay buffer containing 2.5 μL of Propidium iodide (PI) and 2.5 μL of annexin V. All these reagents were supplied along with the apoptosis detection kit (Santa Cruz Biotechnology). The stock concentration of Propidium iodide and annexin V was 50 μg/mL and 200 μg/mL respectively. After this another 400 μL of assay buffer was added to the cells and these total 500 μL of cell solution was analyzed by FACS. The emission of Annexin V and PI was detected in the FITC and PI channels of BD LSRFORTESA flow cytometer using emission filters at 530 and 610 nm respectively. In the represented data, cells in the Q1, Q2 and Q4 quadrants are regarded as necrotic, late apoptotic and early apoptotic cells respectively. Cells in the Q3 quadrant are regarded as normal cells or healthy cells. Data was analyzed using FACS DIVA software. […]

The test system of data set [5] is B16F10 cells. Briefly: MTT cell viability assay in B16F10 cells. The data set is classed as cell-based. As to conditions: Mus musculus, B16-F10, B16F10, 15.62 μg/mL, Table 5 comparison, 24 h.
Procedure: B16F10 and A375 cells were treated with the LDV liposomal formulation of PSI and cellular viability was checked using MTT assay. It is a colorimetric assay where MTT (Methyl thiazolyl diphenyl-tetrazolium bromide), a yellow tetrazole compound, is reduced to purple formazan by cellular reductase enzymes of live cells. Dead cells cannot do this type of reduction and are not able to develop the purple colour. […] The live cells are called as viable cells and it is denoted as % viability in the Y-axis. On the X-axis four different concentrations of the said formulation was plotted. The absorbance at 550 nm was measured and the % viability was calculated.
as §1

Values after ≈ are worked out from the molar mass of the structure shown.

A word on the viability: it is a per cent measure of how many cells are alive, often set against a control. The term IC50 denotes the point on the concentration scale where inhibition reaches its midpoint. A high value points to lower potency. As for `COc1cccc2c1C(=O)c1c(O)c3c(c(O)c1C2=O)C[C@@](O)(C(=O)CO)C[C@@H]3O[C@H]1C[C@H](N)[C@H](O)[C@H](C)O1` [Doxorubicin], the “Amount of Apoptotic death of cancer cell (%)” value in the data set on A375 cells [1] worked out at 100%; in the data set on B16F10 cells [4], 99.9%. The compound further returned a viability at 24 h, 15.62 μg/mL in data set [2] of 65.2%. Besides, inhibition in the data set on A375 cells [3] (A375, Melanoma (human), CompuSyn software) was half-maximal at 10.2 µg/mL (≈ 18.7 µM) (IC50). Moreover, the viability at 3.12 µg/mL with A375 cells [3] (Homo sapiens, A375, 3.12 μg/mL) worked out at 94%. Also, in the data set on A375 cells [3] (Homo sapiens, A375, 6.25 μg/mL), the viability at 6.25 µg/mL came out at 59.2%. In the data set with A375 cells [3] (Homo sapiens, A375, 12.5 μg/mL), the viability at 12.5 µg/mL was determined as 31.5%. The compound also returned a viability at 25 µg/mL in the data set on A375 cells [3] (Homo sapiens, A375, 25 μg/mL) of 11.7%. This compound also gave a viability at 50 µg/mL in the data set with A375 cells [3] (Homo sapiens, A375, 50 μg/mL) of 4.9%. The compound further yielded a viability at 100 µg/mL in the data set with A375 cells [3] (Homo sapiens, A375, 100 μg/mL) of 6.09%. The compound further yielded a viability at 15.62 µg/mL with B16F10 cells [5] of 19.9%.
